Reference: paper PMC8126888 (RSC Medicinal Chemistry, 2020)
Like-named read-outs stand apart in the source and are kept apart here.

What was measured:
[1] = physchem
[2] = in vitro; details: human, microsomes
[3] = tested on: primary peritoneal mouse macrophages (PMM); assay: cells; details: Macrophage
[4] = in vitro; details: mouse, microsomes
[5] = tested on: Leishmania infantum MHOM/MA(BE)/67/ITMAP263 intracellular amastigotes; assay: microbe, parasite or virus in culture; details: Macrophage, in Mus musculus
[6] = tested on: Leishmania infantum MHOM/MA(BE)/67/ITMAP263 intracellular amastigotes; details: intracellular amastigotes in PMM
[7] = tested on: Trypanosoma cruzi, Tulahuen CL2, beta-galactosidase strain; assay: microbe, parasite or virus in culture
[8] = in vitro; details: human
[9] = in vitro; details: human, HepG2 cells
[10] = in vitro; details: human, HFF-1 cells
[11] = HPLC, Ascentis Express RP Amide column, pH 7.4, elog D, HPLC measured log D, pH 7.4
[12] = pH 7.4, Microsome Clint,u Human, Table 2, intrinsic in vitro clearance, liver microsomes
[13] = read-out: PMM pIC50 (converted)
[14] = pH 7.4, Microsome Clint,u Mouse, Table 2, intrinsic in vitro clearance, liver microsomes
[15] = read-out: L. inf. pIC50, intracellular amastigotes in PMM (converted), geometric mean of a minimum of two experiments ± standard error
[16] = HPLC, Ascentis Express RP Amide column, pH 7.4, eLogD, experimental
[17] = pH 7.4, HLM CLint, human liver microsomes
[18] = MRC5, read-out: T. cruzi Tulahuen C4 (LacZ) IC50
[19] = pH 7.4, MLM CLint, mouse liver microsomes
[20] = read-out: L. Inf. pIC50, from L. infantum intracellular amastigote IC50 (converted)
[21] = read-out: L. infantum MHOM/MA(BE)/67/ITMAP263 intracellular amastigotes IC50, intracellular amastigotes
[22] = MRC5, read-out: T. cruzi Tulahuen C4 (LacZ) IC50 (uM)
[23] = read-out: L. infantum MHOM/MA(BE)/67/ITMAP263 intracellular amastigotes IC50 (uM), intracellular amastigotes

| SMILES | chromatographic logD [1, 11] | IC50 [3, 13] [µM] | IC50 [5, 15] [µM] | microsomal CLint at 0.5 μM [2, 12] [µL/min/mg] | microsomal CLint at 0.5 h, 0.5 µM [4, 14] [µL/min/mg] | CC50 at 3 days [8] [µM] | IC50 [5, 20] [µM] | other results |
| --- | --- | --- | --- | --- | --- | --- | --- | --- |
| COc1ccc(OC)c(S(=O)(=O)N(Cc2ccc(F)cc2)Cc2ccnn2C)c1 [Compound 35] | 3.5 | 45.7 | 5.25 |  |  |  |  | microsomal CLint at 0.5 h, 0.5 µM [2, 12]: 651 µL/min/mg; microsomal CLint at 0.5 μM [4, 14]: 5480 µL/min/mg |
| COc1ccc(OC)c(S(=O)(=O)N(Cc2ccc(F)cc2)Cc2nc(C)no2)c1 [Compound 36] | 3.5 | > 64.6 | 7.76 | 350 | 3050 |  |  |  |
| CCN(Cc1ccccc1)S(=O)(=O)c1cc(OC)ccc1OC [Compound 38] | 3.8 | > 64.6 | 2.09 | 534 |  |  |  | chromatographic logD ([1]; pH 7.4, elog D, HPLC measured log D, pH 7.4): 3.5; L. inf. pIC50 ([6]; geometric mean of a minimum of two experiments ± standard error): 5.60 ± 0.03; microsomal CLint at 0.5 μM [4, 14]: 3500 µL/min/mg |
| COCCN(Cc1ccc(F)cc1)S(=O)(=O)c1ccccc1OC(F)(F)F [Compound 40] | 3.8 | > 64.6 | 8.32 |  | 222 |  |  | microsomal CLint at 0.5 h, 0.5 µM [2, 12]: 194 µL/min/mg |
| COCCN(Cc1ccc(F)cc1)S(=O)(=O)c1cc(C#N)ccc1OC [Compound 41] | 3.4 | > 64.6 | 8.91 | < 23 | 585 |  |  |  |
| COCCN(Cc1ccc(F)cc1)S(=O)(=O)c1cc(C(=O)N2CCOCC2)ccc1OC [Compound 42] | 2.9 | > 64.6 | 43.7 ± 0.601 | 28 |  |  |  | microsomal CLint at 0.5 μM [4, 14]: 60 µL/min/mg |
| COc1ccc(C#N)cc1S(=O)(=O)N(Cc1ccc(F)cc1)C1CCOCC1 [Compound 43] | 3.4 | > 64.6 | > 64.6 | 194 |  |  |  | potency against L. inf. in words [6]: inactive; microsomal CLint at 0.5 μM [4, 14]: 253 µL/min/mg |
| COc1ccc(C(=O)N2CCOCC2)cc1S(=O)(=O)N(Cc1ccc(F)cc1)CC(C)C [Compound 44] | 3.6 | > 64.6 | 6.92 |  | 1400 |  |  | microsomal CLint at 0.5 h, 0.5 µM [2, 12]: 1050 µL/min/mg |
| COc1ccc(C#N)cc1S(=O)(=O)N(Cc1ccc(C(F)(F)F)nc1)Cc1ccc(C(F)(F)F)nc1 [Compound 50] | 3.8 | > 64.6 | 38.9 | < 23 | 95 |  |  | potency against L. inf. in words [6]: inactive |
| COc1ccc(OC)c(S(=O)(=O)N(Cc2ccccc2)C2CCCNC2)c1 (centres unmarked) [DNDI0003366131] |  |  |  |  |  | 58.5 | 29.5 | chromatographic logD [1, 16]: 3.2; microsomal CLint at 0.5 μM [2, 17]: 347 µL/min/mg; IC50 ([3]; read-out: PMM IC50): > 64 µM; IC50 [7, 18]: 31.6 µM; microsomal CLint at 0.5 μM [4, 19]: 96 µL/min/mg; IC50 [5, 21]: 29.5 µM |
| COc1ccc(C(N)=O)cc1S(=O)(=O)N(Cc1ccccc1)Cc1ccccc1 [DNDI0003366135] |  |  |  |  |  | 43.2 | 7.41 | microsomal CLint at 0.5 μM [2, 17]: 108 µL/min/mg; IC50 ([3]; read-out: PMM IC50): > 64 µM; IC50 [7, 18]: > 64 µM; microsomal CLint at 0.5 μM [4, 19]: 1670 µL/min/mg; IC50 [5, 21]: 7.39 µM |
| COc1ncc(Br)cc1S(=O)(=O)N(Cc1ccc(F)cc1)Cc1ccc(F)cc1 [DNDI0003369122] |  |  |  |  |  | > 64 | 14.8 | chromatographic logD [1, 16]: 5.2; microsomal CLint at 0.5 μM [2, 17]: 95 µL/min/mg; IC50 ([3]; read-out: PMM IC50): > 64 µM; IC50 [7, 18]: 7.43 µM; microsomal CLint at 0.5 μM [4, 19]: 469 µL/min/mg; IC50 [5, 21]: 14.8 µM |
| O=S1(=O)c2cc(F)ccc2OC(c2ccc(F)cc2)CN1Cc1ccccc1 (centres unmarked) [DNDI0003371160] |  |  |  |  |  | > 64 | 20.4 | chromatographic logD [1, 16]: 4.9; microsomal CLint at 0.5 μM [2, 17]: 398 µL/min/mg; IC50 ([3]; read-out: PMM IC50): > 64 µM; IC50 [7, 18]: 7.97 µM; microsomal CLint at 0.5 μM [4, 19]: 323 µL/min/mg; IC50 [5, 21]: 20.2 µM |
| COc1ccc(CN(Cc2ccc(F)cc2)S(=O)(=O)c2cc(C#N)ccc2OC)cc1 [DNDI0003371172] |  |  |  |  |  | > 64 | 2.95 | CC50 [9]: 35.3 µM; IC50 ([3]; read-out: PMM IC50 (uM)): > 64 µM; IC50 [7, 22]: 13.2 µM; IC50 [5, 23]: 2.92 µM; CC50 [10]: 22.6 µM |
| O=S(=O)(c1cc(F)ccc1F)N(Cc1ccccc1)C(CO)c1ccc(F)cc1 (centres unmarked) [DNDI0003378486] |  |  |  |  |  | 21.2 | 35.5 | CC50 [9]: 24.4 µM; IC50 ([3]; read-out: PMM IC50 (uM)): > 64 µM; IC50 [7, 22]: 13.7 µM; IC50 [5, 23]: 35.5 µM; CC50 [10]: 1.67 µM |
| COc1ccc(CN(Cc2ccc(F)cc2)S(=O)(=O)c2cc(F)ccc2F)cc1 [DNDI0003388150] |  |  |  |  |  | > 64 | 57.5 | CC50 [9]: > 64 µM; IC50 ([3]; read-out: PMM IC50 (uM)): > 64 µM; IC50 [7, 22]: 54.4 µM; IC50 [5, 23]: 57 µM; CC50 [10]: > 64 µM |
